Compound	melting point
COC(=O)CCCc1nc2nncc-2c2nc(-c3ccc(OC)cc3)[nH]n12 [Example 90, methyl 4-[2-(4-methoxyphenyl)pyrazolo[4,3-e]-1,2,4-triazolo[1,5-c]pyrimidin-5-yl]butyrate]	187.5 to 188.5 °C
COC(=O)CCCc1nc2nncc-2c2nc(-c3ccc(Cl)cc3)[nH]n12 [Example 91, methyl 4-[2-(4-chlorophenyl)pyrazolo[4,3-e]-1,2,4-triazolo[1,5-c]pyrimidin-5-yl]butyrate]	194.5 to 196.5 °C
COC(=O)CCCc1nc2nncc-2c2nc(-c3ccc(C)cc3)[nH]n12 [Example 92, methyl 4-[2-(4-methylphenyl)pyrazolo[4,3-e]-1,2,4-triazolo[1,5-c]pyrimidin-5-yl]butyrate]	196.5 to 197 °C
CCCCCc1nc2ccccc2c2nc(-c3ccccc3)nn12 [Example 93, 5-n-pentyl-2-phenyl-1,2,4-triazolo[1,5-c]quinazoline]	118 to 118.5 °C
CCCCCCc1nc2ccccc2c2nc(-c3ccccc3)nn12 [Example 94, 5-n-hexyl-2-phenyl-1,2,4-triazolo[1,5-c]quinazoline]	92 to 93 °C
CCCCCc1nc2ccccc2c2nc(-c3ccc(F)cc3)nn12 [Example 95, 2-(4-fluorophenyl)-5-n-pentyl-1,2,4-triazolo[1,5-c]quinazoline]	133.5 to 134 °C
COC(=O)CCCc1nc2ccccc2c2nc(-c3ccccc3)nn12 [Example 96, methyl 4-(2-phenyl-1,2,4-triazolo[1,5-c]quinazolin-5-yl)butyrate]	118.5 to 119.5 °C
COC(=O)CCCc1nc2ccccc2c2nc(-c3ccc(Br)cc3)nn12 [Example 97, methyl 4-[2-(4-bromophenyl)-1,2,4-triazolo[1,5-c]quinazolin-5-yl]butyrate]	125 to 126 °C
COC(=O)CCCc1nc2ccccc2c2nc(-c3ccc(F)cc3)nn12 [Example 98, methyl 4-[2-(4-fluorophenyl)-1,2,4-triazolo[1,5-c]quinazolin-5-yl]butyrate]	167 to 168 °C
COC(=O)CCCc1nc2ccccc2c2nc(-c3ccc(Cl)cc3)nn12 [Example 99, methyl 4-[2-(4-chlorophenyl)-1,2,4-triazolo[1,5-c]quinazolin-5-yl]butyrate]	128 to 129 °C
COC(=O)CCCc1nc2ccccc2c2nc(-c3ccc(C)cc3)nn12 [Example 100, methyl 4-[2-(4-methylphenyl)-1,2,4-triazolo[1,5-c]quinazolin-5-yl]butyrate]	120.5 to 121.5 °C
CCCCCc1nc2ccccc2c2nc(-c3ccc(C)cc3)nn12 [Example 101, 2-(4-methylphenyl)-5-n-pentyl-1,2,4-triazolo[1,5-c]quinazoline]	129.5 to 131 °C
CCCCCc1nc2ccccc2c2nc(-c3ccc(Br)cc3)nn12 [Example 102, 2-(4-bromophenyl)-5-n-pentyl-1,2,4-triazolo[1,5-c]quinazoline]	133 to 134 °C
CCCCCc1nc2ccccc2c2nc(-c3ccc(Cl)cc3)nn12 [Example 103, 2-(4-chlorophenyl)-5-n-pentyl-1,2,4-triazolo[1,5-c]quinazoline]	118 to 119.5 °C
COC(=O)CCCc1nc2ccc(Cl)cc2c2nc(-c3ccc(Cl)cc3)nn12 [Example 104, methyl 4-[9-chloro-2-(4-chlorophenyl)-1,2,4-triazolo[1,5-c]quinazolin-5-yl]butyrate]	145 to 146.5 °C
CCCCCc1nc2ccccc2c2nc(-c3ccc(OC)cc3)nn12 [Example 105, 2-(4-methoxyphenyl)-5-n-pentyl-1,2,4-triazolo[1,5-c]quinazoline]	123 to 125 °C

Compound	melting point
CCCCCc1nc2ccccc2c2nc(-c3ccc(OCC)cc3)nn12 [Example 106, 2-(4-ethoxyphenyl)-5-n-pentyl-1,2,4-triazolo[1,5-c]quinazoline]	116 to 117 °C
CCCCc1nc2c(cnn2C)c2nc(-c3ccccc3)nn12 [Example 110, 5-n-butyl-7-methyl-2-phenylpyrazolo[4,3-e]-1,2,4-triazolo[1,5-c]pyrimidine]	172 to 173 °C
CCCCc1nc2nn(C)cc2c2nc(-c3ccccc3)nn12 [Example 111, 5-n-butyl-8-methyl-2-phenylpyrazolo[4,3-e]-1,2,4-triazolo[1,5-c]pyrimidine]	184 to 185 °C
CCCCc1nc2c(cnn2CCC)c2nc(-c3ccccc3)nn12 [Example 112, 5-n-butyl-2-phenyl-7-n-propylpyrazolo[4,3-e]-1,2,4-triazolo[1,5-c]pyrimidine]	100.5 to 101.5 °C
CCCCc1nc2nn(CCC)cc2c2nc(-c3ccccc3)nn12 [Example 113, 5-n-butyl-2-phenyl-8-n-propylpyrazolo[4,3-e]-1,2,4-triazolo[1,5-c]pyrimidine]	107 to 108 °C
CCCCc1nc2c(cnn2CC)c2nc(-c3ccccc3)nn12 [Example 114, 5-n-butyl-7-ethyl-2-phenylpyrazolo[4,3-e]-1,2,4-triazolo[1,5-c]pyrimidine]	146 to 147 °C
CCCCc1nc2nn(CC)cc2c2nc(-c3ccccc3)nn12 [Example 115, 5-n-butyl-8-ethyl-2-phenylpyrazolo[4,3-e]-1,2,4-triazolo[1,5-c]pyrimidine]	122.5 to 123 °C
CCCCc1nc2c(cnn2Cc2ccccc2)c2nc(-c3ccccc3)nn12 [Example 116, 7-benzyl-5-n-butyl-2-phenylpyrazolo[4,3-e]-1,2,4-triazolo[1,5-c]pyrimidine]	108 to 109 °C
CCCCc1nc2nn(Cc3ccccc3)cc2c2nc(-c3ccccc3)nn12 [Example 117, 8-benzyl-5-n-butyl-2-phenylpyrazolo[4,3-e]-1,2,4-triazolo[1,5-c]pyrimidine]	159 to 160 °C
CCCCc1nc2c(cnn2C)c2nc(-c3ccc(Cl)cc3)nn12 [Example 118, 2-(4-chlorophenyl)-5-n-butyl-7-methylpyrazolo[4,3-e]-1,2,4-triazolo[1,5-c]pyrimidine]	147.5 to 148.5 °C
CCCCc1nc2nn(C)cc2c2nc(-c3ccc(Cl)cc3)nn12 [Example 119, 2-(4-chlorophenyl)-5-n-butyl-8-methylpyrazolo[4,3-e]-1,2,4-triazolo[1,5-c]pyrimidine]	203.5 to 205 °C
CCCCc1nc2c(cnn2C)c2nc(-c3ccc(C)cc3)nn12 [Example 120, 5-n-butyl-7-methyl-2-(4-methylphenyl)pyrazolo[4,3-e]-1,2,4-triazolo[1,5-c]pyrimidine]	156 to 157 °C
CCCCc1nc2nn(C)cc2c2nc(-c3ccc(C)cc3)nn12 [Example 121, 5-n-butyl-8-methyl-2-(4-methylphenyl)pyrazolo[4,3-e]-1,2,4-triazolo[1,5-c]pyrimidine]	180 to 181 °C
CCCCc1nc2c(cnn2CCC)c2nc(-c3ccc(C)cc3)nn12 [Example 122, 5-n-butyl-2-(4-methylphenyl)-7-n-propylpyrazolo[4,3-e]-1,2,4-triazolo[1,5-c]pyrimidine]	113 to 113.5 °C
CCCCc1nc2nn(CCC)cc2c2nc(-c3ccc(C)cc3)nn12 [Example 123, 5-n-butyl-2-(4-methylphenyl)-8-n-propylpyrazolo[4,3-e]-1,2,4-triazolo[1,5-c]pyrimidine]	101.5 to 103.5 °C

— patent US20040142952A1, “Triazoloquinazoline and pyrazolotriazolopyrimidine derivatives, medicinal compositions, adenosine a3 receptor affinity agents, ocular tension lowering agents, preparations for preventing and treating glaucoma and method of lowering ocular tension” (priority 2001, published 2004)
